Experiments:
Assay type in all cases: biochemical
human NTPDase2 = target: T1, human NTPDase2 (Homo sapiens, UniProt Q9Y5L3); test: Malachite green assay, human NTPDase2; conditions: 100 µM ATP, COS-7 membrane preparation; for IC50: read-out: IC50 ± SEM, NTPDase2; for inhibition at 2 µM: 2 μM compound, read-out: % inhibition at 2 μM concentration, NTPDase2
T1 construct: expressed in transfected cells; host or cells: COS-7 cells (membrane preparation)
T1 sequence (Q9Y5L3 1-495): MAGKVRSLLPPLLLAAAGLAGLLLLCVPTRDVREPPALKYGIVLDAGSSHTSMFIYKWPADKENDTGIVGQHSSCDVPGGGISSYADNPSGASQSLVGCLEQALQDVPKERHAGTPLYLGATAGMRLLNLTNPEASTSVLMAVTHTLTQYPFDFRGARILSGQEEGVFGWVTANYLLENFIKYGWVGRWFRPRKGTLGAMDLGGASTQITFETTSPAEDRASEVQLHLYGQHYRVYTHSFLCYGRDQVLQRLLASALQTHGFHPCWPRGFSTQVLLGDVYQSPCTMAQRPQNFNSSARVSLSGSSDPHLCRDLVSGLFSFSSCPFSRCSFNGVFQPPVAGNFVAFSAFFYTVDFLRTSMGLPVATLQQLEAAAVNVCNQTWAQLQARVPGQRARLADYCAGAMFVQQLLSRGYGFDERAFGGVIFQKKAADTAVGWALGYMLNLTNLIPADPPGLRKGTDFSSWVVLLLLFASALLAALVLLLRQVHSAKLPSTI
Protocol: (§1) Membrane preparations expressing human NTPDase1, -2, -3, or -8, respectively, were obtained as previously described ([Sévigny et al., 1997]; [Cogan et al., 1999]; [Kukulski et al., 2005]; [Lecka et al., 2013]; [Lee et al., 2018]). Enzyme inhibition assays were performed using the malachite green assay in analogy to published procedures with some modifications ([Dou et al., 2018]). The reaction buffer contained 10 mM HEPES, 2 mM CaCl2, and 1 mM MgCl2 (pH 7.4) in a final volume of 50 μL in transparent 96-well half-area plates. The compounds were initially tested at a final concentration of 2 µM using a COS-7-cell membrane preparation expressing the appropriate NTPDase isoenzyme (protein amount: 143 ng for NTPDase1, 175 ng for NTPDase2, 152 ng for NTPDase3, and 175 ng for NTPDase8). Preincubated of the enzyme preparations was perfomred at 37°C in the presence or absence of test compounds with gentle shaking (Eppendorf Thermomixer comfort at 500 rpm) for 5 min. […] ([Kukulski et al., 2005]). After 15 min of incubation at 37°C with gentle shaking, the reaction was stopped by the addition of the detection reagents (20 µL malachite green solution, 0.6 mM, and 30 µL of ammonium molybdate solution, 20 mM, in 1.5 M sulfuric acid). The released inorganic phosphate was quantified after 20 min of gentle shaking at 25°C by measuring the absorption of the malachite green-phosphomolybdate complex at 600 nm using a BMG PheraStar FS plate reader (BMG Labtech GmbH, Ortenberg, Germany). The corrected absorption was calculated by subtracting the absorption of the negative control samples, which were incubated with previously denatured enzyme (90°C, 15 min). Full concentration-inhibition curves were determined with inhibitor concentrations ranging from 0.03 to 30 µM in the presence of 2% DMSO. Inhibition-type experiments were performed with 25, 50, 100, 150 and 200 µM ATP as substrate for NTPDase2 in the presence of inhibitor 20 (0, 0.25, 0.5, and 1 µM) and 25, 50, 100 and 150 µM ATP substrate for NTPDase3 and compound 42 (0.25, 0.5, and 1 µM). For all of the presented data, at least three independent experiments were performed, and IC50 values were calculated by GraphPad Prism 8 software.
(§2) Inhibition of human NTPDases was performed using the malachite green assay, which was established on a robotic system (Z’ factors > 0.70) ([Baykov et al., 1988]; [Fiene et al., 2015]). The malachite green assay enables the detection of the phosphate produced by the enzymatic hydrolysis of nucleotides. A fixed substrate concentration of 50 µM ATP for NTPDase1 and 100 µM for NTPDase2, -3, and -8 was employed. Test compounds were initially screened at a concentration of 2 μM. […] A total of 48 synthesized anthraquinone derivatives including 14 new compounds not previously described in the literature were evaluated for their inhibitory activity at human NTPDase1, -2, -3, and -8 (for results see Table 1).

human NTPDase1 = target: T2, human NTPDase1 (Homo sapiens, UniProt P49961); test: Malachite green assay, human NTPDase1; conditions: 2 μM compound; 50 µM ATP; COS-7 membrane preparation; read-out: % inhibition at 2 μM concentration, NTPDase1
T2 construct: expressed in transfected cells; host or cells: COS-7 cells (membrane preparation)
T2 sequence (P49961 1-510): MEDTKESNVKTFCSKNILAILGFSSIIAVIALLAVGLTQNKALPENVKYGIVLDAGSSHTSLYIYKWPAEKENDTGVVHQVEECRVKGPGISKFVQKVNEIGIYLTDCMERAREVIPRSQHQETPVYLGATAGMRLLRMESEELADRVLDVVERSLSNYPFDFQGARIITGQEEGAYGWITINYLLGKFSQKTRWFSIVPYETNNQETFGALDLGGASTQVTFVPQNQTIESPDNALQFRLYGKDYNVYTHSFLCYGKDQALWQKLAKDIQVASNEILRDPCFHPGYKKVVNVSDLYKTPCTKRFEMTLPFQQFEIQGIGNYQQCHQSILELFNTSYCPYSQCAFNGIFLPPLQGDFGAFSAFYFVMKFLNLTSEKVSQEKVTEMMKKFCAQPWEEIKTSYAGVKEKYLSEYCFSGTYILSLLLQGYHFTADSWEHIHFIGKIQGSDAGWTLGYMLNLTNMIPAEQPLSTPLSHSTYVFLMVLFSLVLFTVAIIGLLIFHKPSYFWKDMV
Protocol: as §1, §2

human NTPDase3 = target: T3, human NTPDase3 (Homo sapiens, UniProt O75355); test: Malachite green assay, human NTPDase3; conditions: for inhibition at 2 µM: 2 μM compound, read-out: % inhibition at 2 μM concentration, NTPDase3; for inhibition at 2 µM / IC50: 100 µM ATP, COS-7 membrane preparation; for IC50: read-out: IC50 ± SEM, NTPDase3
T3 construct: expressed in transfected cells; host or cells: COS-7 cells (membrane preparation)
T3 sequence (O75355 1-529): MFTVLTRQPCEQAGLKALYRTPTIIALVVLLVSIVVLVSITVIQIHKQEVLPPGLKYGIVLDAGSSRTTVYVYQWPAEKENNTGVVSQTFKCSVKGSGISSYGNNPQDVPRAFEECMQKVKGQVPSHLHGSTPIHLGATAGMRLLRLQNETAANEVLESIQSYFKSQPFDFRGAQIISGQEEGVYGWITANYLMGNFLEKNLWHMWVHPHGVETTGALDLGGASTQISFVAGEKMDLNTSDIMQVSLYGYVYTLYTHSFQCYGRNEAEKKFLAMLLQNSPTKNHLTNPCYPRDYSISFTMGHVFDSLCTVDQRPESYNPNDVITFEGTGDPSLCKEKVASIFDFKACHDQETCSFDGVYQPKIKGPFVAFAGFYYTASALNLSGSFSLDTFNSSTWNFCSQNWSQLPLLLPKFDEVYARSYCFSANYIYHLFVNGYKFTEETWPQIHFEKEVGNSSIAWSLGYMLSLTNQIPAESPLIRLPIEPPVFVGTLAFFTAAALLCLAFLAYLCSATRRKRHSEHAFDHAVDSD
Protocol: as §1, §2

human NTPDase8 = target: T4, human NTPDase8 (Homo sapiens, UniProt Q5MY95); test: Malachite green assay, human NTPDase8; conditions: 2 μM compound; 100 µM ATP; COS-7 membrane preparation; read-out: % inhibition at 2 μM concentration, NTPDase8
T4 construct: expressed in transfected cells; host or cells: COS-7 cells (membrane preparation)
T4 sequence (Q5MY95 1-495): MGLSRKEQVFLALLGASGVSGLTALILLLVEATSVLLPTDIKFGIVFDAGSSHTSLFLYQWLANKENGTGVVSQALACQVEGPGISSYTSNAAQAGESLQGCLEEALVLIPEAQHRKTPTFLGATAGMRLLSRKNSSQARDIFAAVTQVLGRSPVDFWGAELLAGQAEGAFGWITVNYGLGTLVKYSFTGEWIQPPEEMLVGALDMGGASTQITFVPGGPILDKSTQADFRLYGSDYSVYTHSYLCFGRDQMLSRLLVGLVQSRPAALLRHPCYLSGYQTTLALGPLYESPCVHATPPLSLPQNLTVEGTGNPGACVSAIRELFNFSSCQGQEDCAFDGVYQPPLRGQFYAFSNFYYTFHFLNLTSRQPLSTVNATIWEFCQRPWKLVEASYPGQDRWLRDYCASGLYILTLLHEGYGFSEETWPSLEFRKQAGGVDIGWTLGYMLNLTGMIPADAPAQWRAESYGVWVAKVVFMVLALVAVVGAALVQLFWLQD
Protocol: as §1, §2

IC50 (human NTPDase2)	inhibition at 2 µM (human NTPDase1)	inhibition at 2 µM (human NTPDase3)	inhibition at 2 µM (human NTPDase8)	inhibition at 2 µM (human NTPDase2)	IC50 (human NTPDase3)	Structure (SMILES)	inhibition type, NTPDase3 (human NTPDase3; Hanes-Woolf plot, 25-150 µM ATP, inhibitor 0.25, 0.5, 1 µM)
	-10%	6%	3%	11%		Nc1c(S(=O)(=O)O)cc(NCc2ccccc2)c2c1C(=O)c1ccccc1C2=O [Compound 12]	
	10%		-20%	5%	1730 ± 550 nM	Nc1ccc(Nc2cc(S(=O)(=O)O)c(N)c3c2C(=O)c2ccccc2C3=O)cc1S(=O)(=O)O [Compound 32]	
	-19%	-25%	-12%	17%		Nc1ccc(Nc2cc(S(=O)(=O)O)c(N)c3c2C(=O)c2ccccc2C3=O)cc1 [Compound 25]	
	-17%		-17%	2%	3100 ± 450 nM	Nc1c(S(=O)(=O)O)cc(Nc2cccc(C(=O)O)c2)c2c1C(=O)c1ccccc1C2=O [Compound 26]	
	-2%	1%	3%	-5%		Nc1c(Br)cc(Nc2cccc(C(=O)O)c2)c2c1C(=O)c1ccccc1C2=O [Compound 52]	
1110 ± 60 nM	12%	18%	9%			Nc1c(S(=O)(=O)O)cc(Nc2cccc(Oc3ccccc3)c2)c2c1C(=O)c1ccccc1C2=O [Compound 40]	
	-12%		-9%	12%	723 ± 32 nM	Nc1c(S(=O)(=O)O)cc(Nc2ccc(O)c(C(=O)O)c2)c2c1C(=O)c1ccccc1C2=O [Compound 33, 1-amino-4-(3-carboxy-4-hydroxyphenylamino)-9,10-dioxo-9,10-dihydroanthracene-2-sulfonate]	
	-3%	-1%	-3%	6%		CCc1cccc(Nc2cc(C)c(N)c3c2C(=O)c2ccccc2C3=O)c1 [Compound 56]	
	-6%	0%	-2%	3%		COc1cccc(Nc2cc(C)c(N)c3c2C(=O)c2ccccc2C3=O)c1 [Compound 55]	

Further lines, the compound ahead of its results:

Structure (SMILES)	IC50 (human NTPDase2)	inhibition at 2 µM (human NTPDase1)	inhibition at 2 µM (human NTPDase3)	inhibition at 2 µM (human NTPDase8)	inhibition at 2 µM (human NTPDase2)	IC50 (human NTPDase3)	inhibition type, NTPDase3 (human NTPDase3; Hanes-Woolf plot, 25-150 µM ATP, inhibitor 0.25, 0.5, 1 µM)
Nc1c(S(=O)(=O)O)cc(Nc2ccc(Sc3ccccc3)c(Cl)c2)c2c1C(=O)c1ccccc1C2=O [Compound 48, Sodium 1-amino-4-(3-chloro-4-phenylsulfanyl)-phenylamino-9,10-dioxo-9,10-dihydroanthracene-2-sulfonate]	551 ± 195 nM	29%	20%	14%			
Nc1c(S(=O)(=O)O)cc(Nc2ccc(Cl)cc2C(=O)O)c2c1C(=O)c1ccccc1C2=O [Compound 36]		-20%		-17%	-2%	4040 ± 470 nM	
Nc1c(S(=O)(=O)O)cc(Nc2cccc3cccc(S(=O)(=O)O)c23)c2c1C(=O)c1ccccc1C2=O [Compound 17]		-1%		-11%	15%	1640 ± 260 nM	
Nc1c(S(=O)(=O)O)cc(Nc2ccc(S(=O)(=O)O)c(Nc3nc(Cl)nc(Cl)n3)c2)c2c1C(=O)c1ccccc1C2=O [Compound 42, 1-amino-4-[3-(4,6-dichlorotriazin-2-ylamino)-4-sulfophenylamino]-9,10-dioxo-9,10-dihydroanthracene-2-sulfonate]		-2%		-7%	10%	390 ± 41 nM	mixed-type
Nc1c(S(=O)(=O)O)cc(Nc2ccc(Sc3ccccc3)cc2)c2c1C(=O)c1ccccc1C2=O [Compound 44]	934 ± 136 nM	15%	7%	6%			
Nc1c(S(=O)(=O)O)cc(Nc2ccccc2)c2c1C(=O)c1ccccc1C2=O [Compound 14]		-13%	-10%	-15%	15%		
O=C(O)c1cc(Nc2cc(S(=O)(=O)O)cc3c2C(=O)c2ccccc2C3=O)ccc1O [Compound 58]		1%	32%	5%	5%		

Reference: article PMC7481482, “Development of Anthraquinone Derivatives as Ectonucleoside Triphosphate Diphosphohydrolase (NTPDase) Inhibitors With Selectivity for NTPDase2 and NTPDase3” (Frontiers in Pharmacology, 2020)
